Earlier results, collected in patent EP0527762B1, “INHIBITION OF ALLOGRAFT AND […] REJECTION” (priority 1990, dated 1991).

tested on: rabbit kidney xenografts; conditions: rabbit kidney into cats, discordant

For `O=C(O)c1cc(=O)c2c(OCC(O)COc3cccc4oc(C(=O)O)cc(=O)c34)cccc2o1` [sodium chromoglycate], which “prevention of hyperacute rejection” value is on record?
The value was “not prevented”.

Which “prevention of hyperacute rejection” value does the source give for `C[C@H](CS)C(=O)N1CCC[C@H]1C(=O)O` [captopril] here?
The value was “not prevented”.

With `CCOC(=O)[C@H](CCc1ccccc1)N[C@@H](C)C(=O)N1CCC[C@H]1C(=O)O` [enalapril] as the molecule, how does the “prevention of hyperacute rejection” value read?
The value was “not prevented”.

For `CCCCC[C@H](O)/C=C/[C@@H]1[C@H]2C/C(=C/CCCC(=O)O)O[C@H]2C[C@H]1O` [prostacyclin], which “prevention of hyperacute rejection” value is on record?
Its value is “not prevented”.
